Results on 3 compounds are retold here after US12599620B2, “Method for the treatment of chronic fatigue syndrome using an inhibitory or cytotoxic agent against plasma cells” (Vestlandets Innovasjonsselskap AS, priority 2019, dated 2026).

For series [1], the system named is ME/CFS patients. The series is described as follows: Bortezomib treatment of ME/CFS patients (case reports Patient 1, Patient 2). The settings on record: for clinical effect on ME/CFS symptoms: PEM, pain. The class given is in vivo, human. How it is done:
They received Bortezomib subcutaneously says 1, 4, 11 and 15. […] They therefore received the third course of Bortezomib as an intravenous infusion with the same dose 1.3 mg/m^2, given at days 1, 4, 8 and 11.
They had increasing energy, increased exertion and was able to perform many new tasks. […] The self-reported symptom improvement was supported by measured steps per 24 hours (Fitbit armband) and in the response period we registered more than 10.000 steps per day.
The effect lasted for approximately 7 weeks before they started experiencing gradual relapse of the ME/CFS symptoms.
[…] Fitbit armband verified […] description of improvement, with increasing steps per 24 hours from mean 1500-2000 before intervention to approximately 4000, up to 7000 on single days, after response.

Series [2] has as its system patients with N-Methyl-D-Aspartate (NMDA) receptor antibody-mediated encephalitis. The conditions noted are these: refractory to first and second line therapy; cited from earlier work.
The subject of series [3] is lupus nephritis in mice. The conditions noted are these: Bortezomib plus B-cell depletion; cited from earlier work.
Series [4] relates to ME/CFS patients. The conditions noted are these: Patient 2; open-label trial, cyclophosphamide intravenous infusions.
Series [5] deals with ME/CFS patients. The conditions noted are these: cited from earlier work; for effect on ME/CFS symptoms: patients with longstanding ME/CFS given the drug for an acquired cancer.

As to `CC(C)C[C@H](NC(=O)[C@H](Cc1ccccc1)NC(=O)c1cnccn1)B(O)O` [Bortezomib], the “duration of effect before gradual relapse” value in series [1] (Patient 1) was “approximately 7 weeks”. Moreover, the “measured steps per 24 hours (Fitbit armband) in the response period” value in series [1] (Patient 1) is listed as “more than 10.000 steps per day”. Besides, the “clinical effect on ME/CFS symptoms” value was “gradual improvement of all their ME/CFS symptoms” in series [1] (Patient 1, cognitive disturbances, sleep problems); “gradual and consistent improvement of all their ME/CS symptoms” in series [1] (Patient 2, energy, dizziness, cognitive function). For the same compound, the side effects entry in series [1] (Patient 1, first course 1.0 mg/m^2 subcutaneously) is “no bortezomib-associated side effects except an exanthema around the injection site”; in series [1] (Patient 1, second course 1.3 mg/m^2 subcutaneously) it was “increasing local reaction at the injection site and with some transient fatigue and pain in the muscles”; in series [1] (Patient 1, third course 1.3 mg/m^2 intravenous infusion) it was “transient exanthema along the vein on the arm”; in series [1] (Patient 2, after the last (sixth) course) it was “discomfort in their lower extremities at the legs and feet, and some constipation”; in series [1] (Patient 2, first course 1.0 mg/m^2 subcutaneously), “minimal skin reaction at the injection site and no other side effects”. In addition, the “start of gradual improvement of ME/CFS symptoms, from start of bortezomib treatment” value in series [1] (Patient 1, three courses Bortezomib 1.0-1.3 mg/m^2 sc/iv) was 10 week. Moreover, the “response lasting until time after the last Bortezomib infusion” value in series [1] (Patient 2) is on record as 6 weeks. Besides, the “steps per 24 hours on single days after response” value in series [1] (Patient 2) is “up to 7000 steps per 24 hours”. Also, the “start of improvement of ME/CFS symptoms, after start of Bortezomib intervention” value in series [1] (Patient 2, courses 1.0 then 1.3 mg/m^2) was 7 weeks. Besides, the “total duration of response before gradual relapse” value in series [1] (Patient 2, in total 6 courses) is given as 16 weeks. In addition, in series [1] (Patient 2, mean 1500-2000 before intervention), the “steps per 24 hours (Fitbit armband) after response” value is on record as “approximately 4000 steps per 24 hours”. Further, the clinical outcome in series [2] is “clinical improvement and reduction of pathologic autoantibodies”. Also, the outcome in series [3] was “sustained plasma cell depletion and amelioration of lupus nephritis”.

On to `O=P1(N(CCCl)CCCl)NCCCO1` (stereo not drawn) [Cyclophosphamide], for which the “duration of clinical response before gradual relapse” value in series [4] is recorded as “almost a year”. Also, in series [5], the “effect on ME/CFS symptoms” value is recorded as “significant symptomatic improvement”. For the same compound, the “share of patients with significant clinical improvements of long duration” value in series [5] (phase II trial, 6 courses of Cyclophosphamide) was “more than half the patients”.

In the case of `O=P1(NCCCl)OCCCN1CCCl` (stereo not drawn) [Ifosfamide], the “effect on ME/CFS symptoms” value in series [5] is “significant symptomatic improvement”.
